Assay results: PubChem BioAssay (NCI)
Several values for one entry are separate records, joined by “and”; a condition that tells them apart may be missing. Equal entries are not always repeated.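 Cells were grown in 96-well plates and exposed to each compound for 48 hours at five concentrations; endpoints were interpolated linearly between bracketing concentrations, or set to the highest concentration if not reached. At the GI50, growth is halved. TGI: total growth inhibition.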 Where a SMILES comes first, the peptide text is derived from it. [ ]: non-standard residue; d: D form. The star is where a group is joined. ξ: configuration not given here. X6 = FC(F)(F)c1cc(NC(=S)*)cc(C(F)(F)F)c1; ξF = NC(Cc1ccccc1)C(=O)O

Legend:
Test in all cases: inhibition of tumour cell growth, NCI panel, 48 h
TK-10 renal = tested on: TK-10 renal
PC-3 prostate = tested on: PC-3 prostate
MOLT-4 leukemia = tested on: MOLT-4 leukemia
SF-539 CNS = tested on: SF-539 CNS
CAKI-1 renal = tested on: CAKI-1 renal
SN12C renal = tested on: SN12C renal
HT29 colon = tested on: HT29 colon
UACC-62 melanoma = tested on: UACC-62 melanoma
SK-MEL-28 melanoma = tested on: SK-MEL-28 melanoma
A498 renal = tested on: A498 renal

COc1cc(/C=N/NC(=O)c2ccc(C(F)(F)F)nc2Nc2ccc(Cl)cc2C)ccc1O
GI50 (TK-10 renal): 5.13 µM
TGI (TK-10 renal): 17.3 µM
GI50 (PC-3 prostate): 1.89 µM
TGI (PC-3 prostate): 9.87 µM
GI50 (MOLT-4 leukemia): 0.554 µM
TGI (MOLT-4 leukemia): 2.75 µM
GI50 (SF-539 CNS): 2.12 µM
TGI (SF-539 CNS): 7.66 µM
GI50 (CAKI-1 renal): 2.23 µM
TGI (CAKI-1 renal): 10.8 µM
GI50 (SN12C renal): 2.97 µM
TGI (SN12C renal): 16.5 µM
GI50 (HT29 colon): 4.45 µM
TGI (HT29 colon): 16.2 µM
GI50 (UACC-62 melanoma): 1.88 µM
TGI (UACC-62 melanoma): 5.01 µM
GI50 (SK-MEL-28 melanoma): 2.74 µM
TGI (SK-MEL-28 melanoma): 14.3 µM
GI50 (A498 renal): 3.1 µM
TGI (A498 renal): 14.5 µM

O=C(CC1(O)C(=O)Nc2c(Cl)cc(Cl)cc21)c1ccc(Br)cc1Br (stereo unspecified)
TGI (TK-10 renal): 32 µM
TGI (PC-3 prostate): 31.4 µM
TGI (MOLT-4 leukemia): 17.3 µM
TGI (SF-539 CNS): 36.5 µM
TGI (CAKI-1 renal): 16.2 µM
TGI (SN12C renal): 28.5 µM
TGI (HT29 colon): 40.9 µM
TGI (UACC-62 melanoma): 25.6 µM
TGI (SK-MEL-28 melanoma): 27.7 µM
TGI (A498 renal): 40 µM

Cn1cnc([N+](=O)[O-])c1Sc1nnc(-c2cccnc2)n1C
TGI (TK-10 renal): 32.8 µM
TGI (PC-3 prostate): > 57.9 µM
TGI (MOLT-4 leukemia): 52 µM
TGI (SF-539 CNS): 55.2 µM
TGI (CAKI-1 renal): 42.7 µM
TGI (SN12C renal): 60.5 µM
TGI (HT29 colon): 47.9 µM
TGI (UACC-62 melanoma): 32.6 µM
TGI (SK-MEL-28 melanoma): 35.6 µM
TGI (A498 renal): > 100 µM

COc1ccc(-c2nc3sccn3c2/C(N)=N/C(=N)N)cc1OC
GI50 (TK-10 renal): 28.6 µM
TGI (TK-10 renal): > 100 µM
GI50 (PC-3 prostate): 34.3 µM
TGI (PC-3 prostate): > 100 µM
GI50 (MOLT-4 leukemia): 27.6 µM
TGI (MOLT-4 leukemia): > 100 µM
GI50 (SF-539 CNS): 25.7 µM
TGI (SF-539 CNS): 66 µM
GI50 (CAKI-1 renal): 87.7 µM
TGI (CAKI-1 renal): > 100 µM
GI50 (SN12C renal): 27.2 µM
TGI (SN12C renal): > 100 µM
GI50 (HT29 colon): 58.4 µM
TGI (HT29 colon): > 100 µM
GI50 (UACC-62 melanoma): 66 µM
TGI (UACC-62 melanoma): > 100 µM
GI50 (SK-MEL-28 melanoma): 32.5 µM
TGI (SK-MEL-28 melanoma): > 100 µM
GI50 (A498 renal): > 100 µM
TGI (A498 renal): > 100 µM

O=C1C=C(Cl)C(=O)C(c2ccc(Cl)cc2)=C1
TGI (TK-10 renal): 35.9 µM
TGI (PC-3 prostate): 29.3 µM
TGI (MOLT-4 leukemia): 22.1 µM
TGI (SF-539 CNS): 32.4 µM
TGI (CAKI-1 renal): 35.1 µM
TGI (SN12C renal): 44.4 µM
TGI (HT29 colon): 62.8 µM
TGI (UACC-62 melanoma): 42.4 µM
TGI (SK-MEL-28 melanoma): 43.4 µM
TGI (A498 renal): 50.8 µM

COC(=O)[C@@H](NC(=O)CNC(=O)[C@H]1CCCN1C(=O)C(Cc1ccccc1)NC(=S)Nc1cc(C(F)(F)F)cc(C(F)(F)F)c1)C(C)C (stereo partly specified) (X6-[ξF][dP]GV-OMe)
GI50 (TK-10 renal): 4.45 µM
TGI (TK-10 renal): 18.8 µM
GI50 (PC-3 prostate): 2.48 µM
GI50 (MOLT-4 leukemia): 2.28 µM
TGI (MOLT-4 leukemia): 6.07 µM
GI50 (SF-539 CNS): 2.06 µM
TGI (SF-539 CNS): 3.94 µM
GI50 (CAKI-1 renal): 2.71 µM
TGI (CAKI-1 renal): 10.5 µM
GI50 (SN12C renal): 1.85 µM
TGI (SN12C renal): 4.26 µM
GI50 (HT29 colon): 2.44 µM
TGI (HT29 colon): 5.75 µM
GI50 (UACC-62 melanoma): 1.79 µM
TGI (UACC-62 melanoma): 3.98 µM
GI50 (SK-MEL-28 melanoma): 1.84 µM
TGI (SK-MEL-28 melanoma): 3.38 µM
GI50 (A498 renal): 2.11 µM
TGI (A498 renal): 7.92 µM

CCOC(=O)[C@]1(OC(C)=O)C[C@H](OC(C)=O)[C@@H](C(F)COP(=O)(OCc2ccccc2)OCc2ccccc2)O1 (stereo partly specified)
GI50 (TK-10 renal): 18.8 µM and > 100 µM
TGI (TK-10 renal): 35.7 µM and > 100 µM
TGI (PC-3 prostate): 88 µM and > 100 µM
TGI (MOLT-4 leukemia): > 100 µM
TGI (SF-539 CNS): > 100 µM
TGI (CAKI-1 renal): > 100 µM
TGI (SN12C renal): > 100 µM
GI50 (HT29 colon): 28.2 µM and > 100 µM
TGI (HT29 colon): 83 µM and > 100 µM
GI50 (UACC-62 melanoma): 16.9 µM and > 100 µM
TGI (UACC-62 melanoma): 33.8 µM and > 100 µM
TGI (SK-MEL-28 melanoma): > 100 µM
GI50 (A498 renal): 24.7 µM and > 100 µM
TGI (A498 renal): 52.8 µM and > 100 µM

COC1CCC(N2C(=O)CNc3ncc(-c4ccc(C(C)(C)O)nc4)nc32)CC1 (stereo unspecified)
TGI (TK-10 renal): 5.58 µM and 1.86 µM
GI50 (PC-3 prostate): 0.322 µM and 0.108 µM
TGI (PC-3 prostate): 4.2 µM and > 33.5 µM
GI50 (MOLT-4 leukemia): 1.51 µM and 0.437 µM
TGI (MOLT-4 leukemia): > 100 µM
GI50 (SF-539 CNS): 1.42 µM and 0.335 µM
TGI (SF-539 CNS): 6.95 µM and 4.7 µM
GI50 (CAKI-1 renal): 0.412 µM
TGI (CAKI-1 renal): > 6.75 µM
GI50 (SN12C renal): 0.794 µM and 0.315 µM
TGI (SN12C renal): > 43.2 µM
GI50 (HT29 colon): 1.83 µM and 0.472 µM
TGI (HT29 colon): > 38.4 µM
GI50 (UACC-62 melanoma): 0.237 µM and 0.111 µM
TGI (UACC-62 melanoma): 2.08 µM and 1.26 µM
GI50 (SK-MEL-28 melanoma): 0.378 µM and 0.155 µM
TGI (SK-MEL-28 melanoma): 4.1 µM and 10.4 µM
GI50 (A498 renal): 0.0614 µM and 0.0422 µM
TGI (A498 renal): 0.769 µM and 0.378 µM

CC(C)CCC[C@@H](C)[C@H]1CC[C@H]2[C@@H]3CC=C4C[C@@H](C(C(=O)O)C(=O)O)CC[C@]4(C)[C@H]3CC[C@]12C
GI50 (TK-10 renal): 0.165 µM
TGI (TK-10 renal): 0.632 µM
GI50 (PC-3 prostate): 0.177 µM
TGI (PC-3 prostate): 2.19 µM
GI50 (MOLT-4 leukemia): 0.248 µM
TGI (MOLT-4 leukemia): 2.05 µM
GI50 (SF-539 CNS): 0.107 µM
TGI (SF-539 CNS): 0.407 µM
GI50 (CAKI-1 renal): 0.076 µM
TGI (CAKI-1 renal): 0.199 µM
GI50 (SN12C renal): 0.137 µM
TGI (SN12C renal): 0.457 µM
GI50 (HT29 colon): 0.224 µM
TGI (HT29 colon): 1.06 µM
GI50 (UACC-62 melanoma): 0.0764 µM
TGI (UACC-62 melanoma): 0.187 µM
GI50 (SK-MEL-28 melanoma): 0.143 µM
TGI (SK-MEL-28 melanoma): 0.469 µM
GI50 (A498 renal): 0.0862 µM
TGI (A498 renal): 0.216 µM

O=C1C(Cl)=C(Nc2cccc(Cl)c2)C(=O)N1Cc1ccc(Cl)cc1Cl
GI50 (TK-10 renal): 11.5 µM
TGI (TK-10 renal): 31.7 µM
GI50 (PC-3 prostate): 2.94 µM
TGI (PC-3 prostate): > 50.3 µM
TGI (MOLT-4 leukemia): > 100 µM
GI50 (SF-539 CNS): < 0.0466 µM
TGI (SF-539 CNS): 2.92 µM
GI50 (CAKI-1 renal): 5.36 µM
TGI (CAKI-1 renal): 48.5 µM
GI50 (SN12C renal): 0.252 µM
TGI (SN12C renal): 12.8 µM
GI50 (HT29 colon): 0.971 µM
TGI (HT29 colon): 14.7 µM
GI50 (UACC-62 melanoma): 0.446 µM
TGI (UACC-62 melanoma): 4.83 µM
GI50 (SK-MEL-28 melanoma): 1.67 µM
TGI (SK-MEL-28 melanoma): 14.2 µM
GI50 (A498 renal): 0.771 µM
TGI (A498 renal): 7.12 µM

Cc1ccc(C(=O)/C(=C/c2ccc([N+](=O)[O-])cc2)SCc2ccc(Cl)cc2)cc1
GI50 (TK-10 renal): 4.95 µM
TGI (TK-10 renal): 30.7 µM
GI50 (PC-3 prostate): 1.12 µM
TGI (PC-3 prostate): 3.49 µM
GI50 (MOLT-4 leukemia): 0.471 µM
TGI (MOLT-4 leukemia): > 100 µM
GI50 (SF-539 CNS): 2.06 µM
TGI (SF-539 CNS): 4.49 µM
GI50 (CAKI-1 renal): 1.7 µM
TGI (CAKI-1 renal): 4.9 µM
GI50 (SN12C renal): 1.83 µM
TGI (SN12C renal): 4.68 µM
GI50 (HT29 colon): 0.676 µM
TGI (HT29 colon): 2.86 µM
GI50 (UACC-62 melanoma): 1.34 µM
TGI (UACC-62 melanoma): 3.41 µM
GI50 (SK-MEL-28 melanoma): 3.36 µM
TGI (SK-MEL-28 melanoma): 14.7 µM
GI50 (A498 renal): 24 µM
TGI (A498 renal): > 100 µM

COC1=CC(=O)c2nc(-c3ccncc3)[nH]c2C1=O
GI50 (TK-10 renal): > 100 µM
TGI (TK-10 renal): > 100 µM
GI50 (PC-3 prostate): > 100 µM
TGI (PC-3 prostate): > 100 µM
GI50 (MOLT-4 leukemia): > 100 µM
TGI (MOLT-4 leukemia): > 100 µM
GI50 (SF-539 CNS): > 100 µM
TGI (SF-539 CNS): > 100 µM
GI50 (CAKI-1 renal): 86.6 µM
TGI (CAKI-1 renal): > 100 µM
GI50 (SN12C renal): > 100 µM
TGI (SN12C renal): > 100 µM
GI50 (HT29 colon): > 100 µM
TGI (HT29 colon): > 100 µM
GI50 (UACC-62 melanoma): > 100 µM
TGI (UACC-62 melanoma): > 100 µM
GI50 (SK-MEL-28 melanoma): > 100 µM
TGI (SK-MEL-28 melanoma): > 100 µM
GI50 (A498 renal): > 100 µM
TGI (A498 renal): > 100 µM
